Laboratory results published in patent US7232906B2, “Substituted pyrrolines as kinase inhibitors” (Janssen Pharmaceutica N.V., priority 2002, dated 2007).

Legend:
Format in all cases: biochemical
[1] = target: recombinant rabbit GSK-3β (Oryctolagus cuniculus, UniProt G1T8E2); test: Glycogen Synthase Kinase-3 assay; design: GSK-3β Assay Activity, % @ 200 nM: scale not given here; conditions: PPI-2 substrate; for IC50: 33P-ATP, 90 minutes at 30° C.
Experimental: Compounds were tested for the ability to inhibit recombinant rabbit GSK-3β using the following protocol. The test compound was added to a reaction mixture containing Protein phosphatase inhibitor-2 (PPI-2) (Calbiochem) (45 ng), rabbit GSK-3β (New England Biolabs) (0.75 units) and ^33P-ATP (1 μCi) in 50 mM Tris-HCl (pH 8.0), 10 mM MgCl2, 0.1% BSA, 1 mM DTT and 100 μM Sodium Vanadate. The mixture was reacted for 90 minutes at 30° C. to allow phosphorylation of the PPI-2 protein and then the protein in the reaction was precipitated using 10% TCA. The precipitated protein was collected on filter plates (MultiScreen-DV/Millipore), which were subsequently washed. Finally, the radioactivity was quantified using a TopCount Scintillation Counter (Packard). […] Staurosporine or Valproate, known inhibitors of GSK-3β, were used as a positive control for screening.

PKC α = PKC α (Homo sapiens, UniProt P17252); test: Protein Kinase C histone-based assay, α isoform; design: PKC Activity Alpha, % @ 10 μM (Histone Based Assay): scale not given here; conditions: histone III substrate; for IC50: 30 μM ATP, approximately ± 30 percent margin of error, read-out: PKC Activity Alpha (IC50, Histone Based Assay)
Experimental: (§1) Compounds were evaluated for PKC selectivity using histone III as the substrate. The PKC isoforms α, β-II or γ were added to a reaction mixture that contained 20 mM HEPES, (pH 7.4), 940 μM CaCl2, 10 mM MgCl2, 1 mM EGTA. 100 μg/mL phosphatidylserine, 20 μg/mL diacylglycerol, 30 μM ATP, 1 μCi (^33P)ATP and 200 μg/mL histone III. The reaction was incubated for 10 min at 30° C. Reactions were terminated by TCA precipitation and spotting on Whatman P81 filters. Filters were washed in 75 mM phosphoric acid and the radioactivity quantified by liquid scintillation counting.

PKC β-II = PKC β-II (Homo sapiens, UniProt P05771); test: Protein Kinase C histone-based assay, β-II isoform; design: PKC Activity Beta II, % @ 1 μM (Histone Based Assay): scale not given here; conditions: histone III substrate; for IC50: 30 μM ATP, approximately ± 30 percent margin of error, read-out: PKC Activity Beta II (IC50, Histone Based Assay)
Chain of PKC β-II (P05771 1-673 isoform P05771-2): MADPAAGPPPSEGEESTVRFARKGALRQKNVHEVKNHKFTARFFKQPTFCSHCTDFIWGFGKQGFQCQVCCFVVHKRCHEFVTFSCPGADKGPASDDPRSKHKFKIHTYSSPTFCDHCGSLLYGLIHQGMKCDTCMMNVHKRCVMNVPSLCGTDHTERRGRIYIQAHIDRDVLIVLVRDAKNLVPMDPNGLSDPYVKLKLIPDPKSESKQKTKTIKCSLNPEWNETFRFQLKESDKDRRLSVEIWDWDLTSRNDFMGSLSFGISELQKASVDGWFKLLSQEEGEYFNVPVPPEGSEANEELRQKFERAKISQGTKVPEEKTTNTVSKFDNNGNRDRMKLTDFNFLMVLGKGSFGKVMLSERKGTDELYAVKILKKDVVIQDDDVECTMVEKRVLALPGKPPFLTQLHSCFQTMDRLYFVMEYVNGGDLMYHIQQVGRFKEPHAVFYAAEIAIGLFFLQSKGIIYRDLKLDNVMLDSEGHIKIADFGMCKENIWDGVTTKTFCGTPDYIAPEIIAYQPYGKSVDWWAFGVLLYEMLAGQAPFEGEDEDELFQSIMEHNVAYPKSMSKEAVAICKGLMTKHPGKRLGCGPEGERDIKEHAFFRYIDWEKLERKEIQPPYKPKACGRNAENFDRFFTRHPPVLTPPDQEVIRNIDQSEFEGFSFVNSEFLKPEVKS
Experimental: as §1

PKC γ = PKC γ (Homo sapiens, UniProt P05129); test: Protein Kinase C histone-based assay, γ isoform; design: PKC Activity Gamma, % @ 10 μM (Histone Based Assay): scale not given here; conditions: histone III substrate; for IC50: 30 μM ATP, approximately ± 30 percent margin of error, read-out: PKC Activity Gamma (IC50, Histone Based Assay)
Experimental: as §1

Chain of recombinant rabbit GSK-3β (G1T8E2 1-432): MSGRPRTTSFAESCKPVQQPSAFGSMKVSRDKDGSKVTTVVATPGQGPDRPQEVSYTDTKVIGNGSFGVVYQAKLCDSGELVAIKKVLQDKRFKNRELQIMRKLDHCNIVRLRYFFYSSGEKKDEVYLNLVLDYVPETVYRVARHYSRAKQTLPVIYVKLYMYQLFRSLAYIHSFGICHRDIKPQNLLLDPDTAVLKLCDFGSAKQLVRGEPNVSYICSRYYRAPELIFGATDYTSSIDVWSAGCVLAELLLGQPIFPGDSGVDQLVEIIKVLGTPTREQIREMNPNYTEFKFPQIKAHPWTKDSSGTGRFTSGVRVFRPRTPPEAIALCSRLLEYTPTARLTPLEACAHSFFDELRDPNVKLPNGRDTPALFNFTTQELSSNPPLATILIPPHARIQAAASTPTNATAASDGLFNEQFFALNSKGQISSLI

Compound	IC50 [1]	GSK-3β Assay Activity, % @ 200 nM [1]	IC50 (PKC α)	IC50 (PKC β-II)	also measured
3-(2-bromo-5-[3-(dimethylamino)propyl]phenyl]-4-(1-phenyl-1H-indol-3-yl)-1H-pyrrole-2,5-dione [Cpd 25]	110 nM				
3-(3-bromophenyl)-4-[1-[3-(3-butynylmethylamino)propyl]-1H-indol-3-yl]-1H-pyrrole-2,5-dione [Cpd 22]		62% @ 200 nM			
3-[1-[3-(3-butynylmethylamino)propyl]-1H-indol-3-yl]-4-(3-iodophenyl)-1H-pyrrole-2,5-dione [Cpd 23]		67% @ 200 nM			
C=Cn1cc(C2=C(c3cccc(OCC(O)CN(C)C)c3)C(=O)NC2=O)c2ccccc21 (stereo not shown) [Cpd 2, 3-[3-[3-(dimethylamino)-2-hydroxypropoxy]phenyl]-4-(1-ethenyl-1H-indol-3-yl)-1H-pyrrole-2,5-dione]		72% @ 200 nM			
CN(C)CCCn1cc(C2=C(c3cccc4ccccc34)C(=O)NC2=O)c2ccccc21 [Cpd 12, 3-[1-[3-(dimethylamino)propyl]-1H-indol-3-yl]-4-(1-naphthalenyl)-1H-pyrrole-2,5-dione]		64% @ 200 nM			
O=C1NC(=O)C(c2cn(-c3cccnc3)c3ccccc23)=C1c1ccc(O)cc1 [Cpd 29, 3-(4-hydroxyphenyl)-4-[1-(3-pyridinyl)-1H-indol-3-yl]-1H-pyrrole-2,5-dione]	96 nM				
CN(C)CCCn1cc(C2=C(c3csc4ccc(Cl)cc34)C(=O)NC2=O)c2ccccc21 [Cpd 31, 3-(5-chlorobenzo[b]thien-3-yl)-4-[1-[3-(dimethylamino)propyl]-1H-indol-3-yl]-1H-pyrrole-2,5-dione]			83 nM	81 nM	
CN(CCO)CCn1cc(C2=C(c3csc4ccc(Cl)cc34)C(=O)NC2=O)c2ccccc21 [Cpd 41, 3-(5-chlorobenzo[b]thien-3-yl)-4-(1-[2-[(2-hydroxyethyl)methylamino]ethyl]-1H-indol-3-yl]-1H-pyrrole-2,5-dione]		81% @ 200 nM			
O=C1NC(=O)C(c2cn(CCN3CCSC3)c3ccccc23)=C1c1csc2ccc(Cl)cc12 [Cpd 46, 3-(5-chlorobenzo[b]thien-3-yl)-4-[1-[2-(3-thiazolidinyl)ethyl]-1H-indol-3-yl]-1H-pyrrole-2,5-dione]		45% @ 200 nM			
COC(=O)c1cncc(-n2cc(C3=C(c4ccccc4OC)C(=O)NC3=O)c3cc(Cl)ccc32)c1 [Cpd 57, 5-{5-Chloro-3-[4-(2-methoxyphenyl)-2,5-dioxo-2,5-dihydro-1H-pyrrol-3-yl]-indol-1-yl}-nicotinic acid methyl ester]	40 nM				

More lines, main results first:

IC50 [1]	GSK-3β Assay Activity, % @ 200 nM [1]	IC50 (PKC α)	IC50 (PKC β-II)	Compound	also measured
390 nM				CCOC(Cn1cc(C2=C(c3ccccc3OC)C(=O)NC2=O)c2ccccc21)OCC [Cpd 7, 3-[1-(2,2-diethoxyethyl)-1H-indol-3-yl]-4-(2-methoxy-phenyl)-1H-pyrrole-2,5-dione]	PKC Activity Alpha, % @ 10 μM (Histone Based Assay) (PKC α): 39% @ 10 μM; PKC Activity Beta II, % @ 1 μM (Histone Based Assay) (PKC β-II): 68% @ 1 μM; PKC Activity Gamma, % @ 10 μM (Histone Based Assay) (PKC γ): 54% @ 10 μM
39 nM				COc1ccccc1C1=C(c2cn(CC=O)c3ccccc23)C(=O)NC1=O [Cpd 8, 3-[2,5-dihydro-4-(2-methoxyphenyl)-2,5-dioxo-1H-pyrrol-3-yl]-1H-indole-1-acetaldehyde]	
27 nM				COc1ccccc1C1=C(c2cn(CCN(C)CCO)c3ccccc23)C(=O)NC1=O [Cpd 9, 3-[1-[2-[(2-hydroxyethyl)methylamino]ethyl]-1H-indol-3-yl]-4-(2-methoxyphenyl)-1H-pyrrole-2,5-dione]	PKC Activity Alpha, % @ 10 μM (Histone Based Assay) (PKC α): 27% @ 10 μM; PKC Activity Beta II, % @ 1 μM (Histone Based Assay) (PKC β-II): 40% @ 1 μM; PKC Activity Gamma, % @ 10 μM (Histone Based Assay) (PKC γ): 15% @ 10 μM
		117 nM	51 nM	CN(C)CC(O)COc1ccccc1C1=C(c2cn(CCO)c3ccccc23)C(=O)NC1=O (stereo not shown) [Cpd 21, 3-[2-[3-(dimethylamino)-2-hydroxypropoxy]phenyl]-4-[1-(2-hydroxyethyl)-1H-indol-3-yl]-1H-pyrrole-2,5-dione]	IC50 (PKC γ): 477 nM
8 nM		2070 nM	607 nM	COc1ccccc1C1=C(c2cn(-c3cncnc3)c3ccccc23)C(=O)NC1=O [Cpd 26, 3-(2-methoxyphenyl)-4-[1-(5-pyrimidinyl)-1H-indol-3-yl]-1H-pyrrole-2,5-dione]	PKC Activity Gamma, % @ 10 μM (Histone Based Assay) (PKC γ): 29% @ 10 μM
26 nM			527 nM	COc1ccccc1C1=C(c2cn(-c3cccnc3)c3ccccc23)C(=O)NC1=O [Cpd 27, 3-(2-methoxyphenyl)-4-[1-(3-pyridinyl)-1H-indol-3-yl]-1H-pyrrole-2,5-dione]	PKC Activity Alpha, % @ 10 μM (Histone Based Assay) (PKC α): 66% @ 10 μM
68 nM				O=C1NC(=O)C(c2cn(-c3cccnc3)c3ccccc23)=C1c1ccccc1O [Cpd 28, 3-(2-hydroxyphenyl)-4-[1-(3-pyridinyl)-1H-indol-3-yl]-1H-pyrrole-2,5-dione]	
25 nM		412 nM	107 nM	COc1ccccc1C1=C(c2cn(C3CCOCC3)c3ccccc23)C(=O)NC1=O [Cpd 55, 3-(2-Methoxyphenyl)-4-[1-(tetrahydropyran-4-yl)-1H-indol-3-yl]-1H-pyrrole-2,5-dione]	IC50 (PKC γ): 282 nM
51 nM		592 nM	42 nM	COc1ccccc1C1=C(c2cn(-c3cncc(C(=O)O)c3)c3ccc(Cl)cc23)C(=O)NC1=O [Cpd 56, 5-{5-Chloro-3-[4-(2-methoxyphenyl)-2,5-dioxo-2,5-dihydro-1H-pyrrol-3-yl]-indol-1-yl}-nicotinic acid]	IC50 (PKC γ): 832 nM
18 nM		816 nM	32 nM	COc1ccccc1C1=C(c2cn(-c3cncc(C(N)=O)c3)c3ccc(Cl)cc23)C(=O)NC1=O [Cpd 58, 5-{5-Chloro-3-[4-(2-methoxyphenyl)-2,5-dioxo-2,5-dihydro-1H-pyrrol-3-yl]-indol-1-yl}-nicotinamide]	IC50 (PKC γ): 1270 nM
